# Reference: patent US10336720B2, “Cyclic carbonate monomer containing double iodine, biodegradable polymer prepared thereby and use” (SOOCHOW UNIVERSITY, priority 2015, dated 2019)
# Structures can show the parent of a compound that is named as a salt.
# Legend:
# [1] = Blood circulation of drug-loaded vesicles; conditions: nude Balb/C, mouse, whole blood, intravenous, 10 mg/kg
# Description: The blood samples (approximately 10 μL) were collected at time points of 0, 0.25, 0.5, 1, 2, 4, 8, 12 and 24 h. The exact weight of the blood was determined through weighing by difference method, then 100 μL Triton (concentration: 1%) and 500 μL DMF (which contained 20 mM DTT, 1 M HCl) were added. The sample was subjected to extraction, followed by centrifugation (20,000 rpm, 20 min).
# [2] = Maximum tolerated dose (MTD); conditions: nude Balb/C, mouse, in vivo
# Excerpt: Nude Balb/C mice with body weight of about 18-20 g, aged 4-6 weeks were used. […] The standard for MTD was non accidental death in mice or weight less than 15% in mice.
# [3] = system: B16 tumor; assay: Antitumor effect and weight change in mice bearing B16 tumor; format: in vivo, Nude Balb/C mice
# Excerpt: After 2 weeks, when the size of the tumors was 30-50 mm^3, the experiment began. […] From Day 0 to 18, the body weight of the mice in each group was weighed every two days. The size of the tumor was precisely measured with Vernier scale, where the method for calculating the volume of tumors was: V=(L×W×H)/2, (where L was the length of the tumor, W was the width of the tumor, H was the thickness of the tumor). The survival of the mice was observed continuously till the 45th day.
# [4] = system: tumor site; assay: CT imaging of nano-vesicles in mice (Example 20); format: in vivo; conditions: tail vein, circulation after 40 minutes
# Description: By the changing CT value in FIG. 10 can be seen, after a 4 hour cycle, CT change of cRGD20/CLPs was the highest, followed by CLPs, and lowest in the control group, after 7 hours of circulation, CT value of cRGD20/CLPs is 2 times and 10 times than the other two groups.
SMILES,half-life [1] [min],MTD at 10 days [2] [mg/kg],"tumor growth ([3]; DOX.HCl 10 mg/kg at 0, 4, 8, 12 day, 19-day treatment)","body weight decrease ([3]; in 7 days, DOX.HCl 10 mg/kg) [%]",contrast signal in the bladder [4]
"COc1cccc2c1C(=O)c1c(O)c3c(c(O)c1C2=O)C[C@@](O)(C(=O)CO)C[C@@H]3O[C@H]1C[C@H](N)[C@H](O)[C@H](C)O1 [DOX.HCl, doxorubicin hydrochloride]",7.8,< 10,may also inhibit tumor expansion,20,
CC(=O)N(CC(O)CO)c1c(I)c(C(=O)NCC(O)CO)c(I)c(C(=O)NCC(O)CO)c1I (centres unmarked) [iohexol],,,,,contrast strong signal
